Values after ≈ are worked out from the molar mass of the structure shown. Where two headings read alike, the source gives them in different places. Where a SMILES comes first, the peptide text is derived from it. [ ]: non-standard residue; d: D form. ξ: configuration not given here. Phe(4-F) = N[C@@H](Cc1ccc(F)cc1)C(=O)O; ξTic = O=C(O)C1Cc2ccccc2CN1; ξOic = O=C(O)C1CC2CCCCC2N1; Dab = NCC[C@H](N)C(=O)O; Ahx = NCCCCCC(=O)O; GABA = NCCCC(=O)O
How the values were obtained:
[1] = tested on: Mycobacterium ranae (ATCC 110); conditions: ATCC 110
[2] = tested on: Staphylococcus aureus Methicillin/Gentamicin/Tetracycline Resistant (ATCC 33592); conditions: for Minimum Inhibitory Concentration Staphylococcus aureus ME/GM/TC resistant: in vitro MIC, tested at 100, 30, 10, 3, 1, 0.3 and 0.1 μM in 1% DMSO
Bacillus anthracis Ames = conditions: in vitro MIC
in vitro [3] = conditions: human, microsomes, pH 7.4
in vitro [4] = conditions: dog, microsomes, pH 7.4
Plague CO92 = conditions: in vitro MIC
F. tularensis SCHU-S4 = conditions: in vitro MIC
in vitro [5] = conditions: rat, microsomes, pH 7.4
in vitro [6] = conditions: mouse, microsomes, pH 7.4
in vitro [7] = conditions: monkey, microsomes, pH 7.4
[8] = tested on: Bacillus subtillis (ATCC 43223); conditions: ATCC 43223
B. melitensis 16M = conditions: in vitro MIC
[9] = tested on: Salmonella typhimurium (ATCC 13311); conditions: ATCC 13311

CC(=O)NCC(=O)N[C@@H](Cc1ccc(F)cc1)C(=O)N1Cc2ccccc2CC1C(=O)N1C(C(=O)NCC(=O)N[C@@H](CCCCN)C(=O)N2Cc3ccccc3CC2C(=O)N2C(C(=O)NCC(=O)N[C@@H](Cc3ccc(F)cc3)C(=O)N3Cc4ccccc4CC3C(=O)N3C(C(=O)NCC(=O)N[C@@H](CCCCN)C(=O)N4Cc5ccccc5CC4C(=O)N[C@@H](CCCCN)C(=O)N[C@@H](CCCCN)C(=O)N[C@@H](CCCCN)C(=O)N[C@@H](CCCCN)C(N)=O)CC4CCCCC43)CC3CCCCC32)CC2CCCCC21 (stereo partly drawn) [FKAB-1Go, Ac-G-Fpa-Tic-Oic-GK-Tic-Oic-G-Fpa-Tic-Oic-GK-Tic-KKKK-CONH2] (Ac-G[Phe(4-F)][ξTic][ξOic]GK[ξTic][ξOic]G[Phe(4-F)][ξTic][ξOic]GK[ξTic]KKKK-NH2)
MIC Mycobacterium ranae [1]: 3.00 µM (≈ 7.43 µg/mL)
Minimum Inhibitory Concentration Mycobacterium ranae [1]: 3 µM
MIC Staphylococcus aureus ME/GM/TC resistant ([2]; Minimal Inhibitory Concentration, tested at 100-0.1 in 1% DMSO): 10.00 µM (≈ 24.8 µg/mL)
Minimum Inhibitory Concentration Staphylococcus aureus ME/GM/TC resistant [2]: 10 µM
Minimum Inhibitory Concentration Bacillus anthracis Ames (Bacillus anthracis Ames; listed as 44): 0.98 µg/mL
remaining at 0.25 h, 1 μM (in vitro [3]): 103%
remaining at 0.5 h, 1 μM (in vitro [4]): 54%
remaining at 1 h, 1 μM (in vitro [4]): 59%
Minimum Inhibitory Concentration Plague CO92 (Plague CO92; listed as 44): 31.25 µg/mL
Minimum Inhibitory Concentration F. tularensis SCHU-S4 (F. tularensis SCHU-S4): 250 µg/mL
remaining at 0.25 h, 1 μM (in vitro [5]): 74%
remaining at 0.5 h, 1 μM (in vitro [5]): 57%
remaining at 1 h, 1 μM (in vitro [5]): 75%
remaining at 0.25 h, 1 μM (in vitro [6]): 81%
remaining at 0.5 h, 1 μM (in vitro [6]): 26%
remaining at 1 h, 1 μM (in vitro [6]): 22%
remaining at 0.25 h, 1 μM (in vitro [7]): 57%
remaining at 0.5 h, 1 μM (in vitro [7]): 65%
remaining at 1 h, 1 μM (in vitro [7]): 94%
MIC Bacillus Subtillis [8]: 0.30 µM (≈ 0.743 µg/mL)
Minimum Inhibitory Concentration Bacillus subtillis [8]: 0.3 µM
Minimum Inhibitory Concentration B. melitensis 16M (B. melitensis 16M): >500 µg/mL
MIC Salmonella typhimurium [9]: 30 µM (≈ 74.3 µg/mL)
Minimum Inhibitory Concentration Salmonella typhimurium [9]: 30 µM

CC(=O)NCC(=O)N[C@@H](Cc1ccccc1)C(=O)N1Cc2ccccc2CC1C(=O)N1C(C(=O)NCC(=O)N[C@@H](CCN)C(=O)N2Cc3ccccc3CC2C(=O)N2C(C(=O)NCC(=O)N[C@@H](Cc3ccccc3)C(=O)N3Cc4ccccc4CC3C(=O)N3C(C(=O)NCC(=O)N[C@@H](CCN)C(=O)N4Cc5ccccc5CC4C(=O)N[C@@H](CCN)C(=O)N[C@@H](CCN)C(=O)N[C@@H](CCN)C(=O)N[C@@H](CCN)C(N)=O)CC4CCCCC43)CC3CCCCC32)CC2CCCCC21 (stereo partly drawn) [FKAB-1Gz, Ac-GF-Tic-Oic-G-Dab-Tic-Oic-GF-Tic-Oic-G-Dab-Tic-Dab-Dab-Dab-Dab-CONH2] (Ac-GF[ξTic][ξOic]G[Dab][ξTic][ξOic]GF[ξTic][ξOic]G[Dab][ξTic][Dab][Dab][Dab][Dab]-NH2)
Minimum Inhibitory Concentration Mycobacterium ranae [1]: 10 µM
Minimum Inhibitory Concentration Staphylococcus aureus ME/GM/TC resistant [2]: 10 µM
Minimum Inhibitory Concentration Bacillus anthracis Ames (Bacillus anthracis Ames; listed as 55): 0.98 µg/mL
remaining at 1 h, 1 μM (in vitro [4]): 3%
Minimum Inhibitory Concentration Plague CO92 (Plague CO92; listed as 55): 15.6 µg/mL
Minimum Inhibitory Concentration F. tularensis SCHU-S4 (F. tularensis SCHU-S4): 125 µg/mL
remaining at 0.25 h, 1 μM (in vitro [5]): 21%
remaining at 0.5 h, 1 μM (in vitro [5]): 7%
remaining at 1 h, 1 μM (in vitro [5]): 80%
remaining at 0.25 h, 1 μM (in vitro [6]): 74%
remaining at 0.5 h, 1 μM (in vitro [6]): 29%
remaining at 1 h, 1 μM (in vitro [6]): 42%
remaining at 0.5 h, 1 μM (in vitro [7]): 119%
Minimum Inhibitory Concentration B. melitensis 16M (B. melitensis 16M): >500 µg/mL

CC(=O)NCC(=O)N[C@@H](Cc1ccccc1)C(=O)N1Cc2ccccc2CC1C(=O)N1C(C(=O)NCC(=O)N[C@@H](Cc2c[nH]c3ccccc23)C(=O)N2Cc3ccccc3CC2C(=O)N2C(C(=O)NCC(=O)N[C@@H](Cc3ccccc3)C(=O)N3Cc4ccccc4CC3C(=O)N3C(C(=O)NCC(=O)N[C@@H](Cc4c[nH]c5ccccc45)C(=O)N4Cc5ccccc5CC4C(=O)N[C@@H](CCCCN)C(=O)N[C@@H](CCCCN)C(=O)N[C@@H](CCCCN)C(=O)N[C@@H](CCCCN)C(N)=O)CC4CCCCC43)CC3CCCCC32)CC2CCCCC21 (stereo partly drawn) [FKAB-1G-Trp, Ac-GF-Tic-Oic-GW-Tic-Oic-GF-Tic-Oic-GW-Tic-KKKK-CONH2] (Ac-GF[ξTic][ξOic]GW[ξTic][ξOic]GF[ξTic][ξOic]GW[ξTic]KKKK-NH2)
Minimum Inhibitory Concentration Mycobacterium ranae [1]: 100 µM
Minimum Inhibitory Concentration Staphylococcus aureus ME/GM/TC resistant [2]: 30 µM
Minimum Inhibitory Concentration Bacillus anthracis Ames (Bacillus anthracis Ames; listed as 57): 0.98 µg/mL
remaining at 0.25 h, 1 μM (in vitro [3]): 112%
remaining at 0.5 h, 1 μM (in vitro [4]): 116%
Minimum Inhibitory Concentration Plague CO92 (Plague CO92; listed as 57): >500 µg/mL
Minimum Inhibitory Concentration F. tularensis SCHU-S4 (F. tularensis SCHU-S4): >500 µg/mL
remaining at 0.5 h, 1 μM (in vitro [5]): 84%
remaining at 1 h, 1 μM (in vitro [5]): 0%
remaining at 0.25 h, 1 μM (in vitro [6]): 54%
remaining at 0.5 h, 1 μM (in vitro [6]): 81%
remaining at 1 h, 1 μM (in vitro [6]): 106%
remaining at 0.25 h, 1 μM (in vitro [7]): 0%
remaining at 0.5 h, 1 μM (in vitro [7]): 0%
remaining at 1 h, 1 μM (in vitro [7]): 0%
Minimum Inhibitory Concentration B. melitensis 16M (B. melitensis 16M): >500 µg/mL

CC(=O)NCC(=O)N[C@@H](Cc1ccccc1)C(=O)N1Cc2ccccc2CC1C(=O)N1C(C(=O)NCC(=O)N[C@@H](CCCCN)C(=O)N2Cc3ccccc3CC2C(=O)N2C(C(=O)NCC(=O)N[C@@H](Cc3ccccc3)C(=O)N3Cc4ccccc4CC3C(=O)N3C(C(=O)NCC(=O)N[C@@H](CCCCN)C(=O)N4Cc5ccccc5CC4C(=O)NCCCCCC(=O)N[C@@H](CCCCN)C(=O)N[C@@H](CCCCN)C(=O)N[C@@H](CCCCN)C(=O)N[C@@H](CCCCN)C(N)=O)CC4CCCCC43)CC3CCCCC32)CC2CCCCC21 (stereo partly drawn) [FKAB-1G-Ahx, Ac-GF-Tic-Oic-GK-Tic-Oic-GF-Tic-Oic-GK-Tic-Ahx-KKKK-CONH2] (Ac-GF[ξTic][ξOic]GK[ξTic][ξOic]GF[ξTic][ξOic]GK[ξTic][Ahx]KKKK-NH2)
Minimum Inhibitory Concentration Mycobacterium ranae [1]: 10 µM
Minimum Inhibitory Concentration Staphylococcus aureus ME/GM/TC resistant [2]: 30 µM
Minimum Inhibitory Concentration Bacillus anthracis Ames (Bacillus anthracis Ames; listed as 54): 1.95 µg/mL
remaining at 0.25 h, 1 μM (in vitro [3]): 112%
remaining at 0.5 h, 1 μM (in vitro [4]): 79%
remaining at 1 h, 1 μM (in vitro [4]): 84%
Minimum Inhibitory Concentration Plague CO92 (Plague CO92; listed as 54): 15.6 µg/mL
Minimum Inhibitory Concentration F. tularensis SCHU-S4 (F. tularensis SCHU-S4): 250 µg/mL
remaining at 0.25 h, 1 μM (in vitro [5]): 120%
remaining at 0.5 h, 1 μM (in vitro [5]): 106%
remaining at 0.25 h, 1 μM (in vitro [6]): 97%
remaining at 0.5 h, 1 μM (in vitro [6]): 98%
remaining at 1 h, 1 μM (in vitro [6]): 113%
Minimum Inhibitory Concentration B. melitensis 16M (B. melitensis 16M): >500 µg/mL

CC(=O)NCC(=O)N[C@@H](Cc1ccccc1)C(=O)N1Cc2ccccc2CC1C(=O)NCC(=O)N[C@@H](CCCCN)C(=O)N1Cc2ccccc2CC1C(=O)NCC(=O)N[C@@H](Cc1ccccc1)C(=O)N1Cc2ccccc2CC1C(=O)NCC(=O)N[C@@H](CCCCN)C(=O)N1Cc2ccccc2CC1C(=O)N[C@@H](CCCCN)C(=O)N[C@@H](CCCCN)C(=O)N[C@@H](CCCCN)C(=O)N[C@@H](CCCCN)C(N)=O (stereo partly shown) [FKAB-1Gg, Ac-GF-Tic-GK-Tic-GF-Tic-GK-Tic-KKKK-CONH2] (Ac-GF[ξTic]GK[ξTic]GF[ξTic]GK[ξTic]KKKK-NH2)
MIC Mycobacterium ranae [1]: 30.00 µM (≈ 59.6 µg/mL)
Minimum Inhibitory Concentration Bacillus anthracis Ames (Bacillus anthracis Ames; listed as 34): 0.98 µg/mL
% hemolysis 100/25 μM (first value) (red blood cells; 100 μM): 6%
% hemolysis 100/25 μM (second value) (red blood cells; 25): 4.9%
Minimum Inhibitory Concentration Plague CO92 (Plague CO92; listed as 34): 31.25 µg/mL
Minimum Inhibitory Concentration F. tularensis SCHU-S4 (F. tularensis SCHU-S4): 250 µg/mL
MIC Bacillus Subtillis [8]: 10.00 µM (≈ 19.9 µg/mL)
Minimum Inhibitory Concentration B. melitensis 16M (B. melitensis 16M): >500 µg/mL
MIC Salmonella typhimurium [9]: 100 µM (≈ 199 µg/mL)

CC(=O)NCC(=O)N[C@@H](Cc1ccccc1)C(=O)N1Cc2ccccc2CC1C(=O)N1C(C(=O)NCC(=O)N[C@@H](CCCCN)C(=O)N2Cc3ccccc3CC2C(=O)N2C(C(=O)NCC(=O)N[C@@H](Cc3ccccc3)C(=O)N3Cc4ccccc4CC3C(=O)N3C(C(=O)NCC(=O)N[C@@H](CCCCN)C(=O)N4Cc5ccccc5CC4C(=O)NCCCC(=O)N[C@@H](CCCCN)C(=O)N[C@@H](CCCCN)C(=O)N[C@@H](CCCCN)C(=O)N[C@@H](CCCCN)C(N)=O)CC4CCCCC43)CC3CCCCC32)CC2CCCCC21 (stereo partly drawn) [FKAB-1G-Gaba, Ac-GF-Tic-Oic-GK-Tic-Oic-GF-Tic-Oic-GK-Tic-Gaba-KKKK-CONH2] (Ac-GF[ξTic][ξOic]GK[ξTic][ξOic]GF[ξTic][ξOic]GK[ξTic][GABA]KKKK-NH2)
Minimum Inhibitory Concentration Mycobacterium ranae [1]: 3 µM
Minimum Inhibitory Concentration Staphylococcus aureus ME/GM/TC resistant [2]: 10 µM
Minimum Inhibitory Concentration Bacillus anthracis Ames (Bacillus anthracis Ames; listed as 53): 0.98 µg/mL
remaining at 0.25 h, 1 μM (in vitro [3]): 118%
remaining at 0.5 h, 1 μM (in vitro [4]): 80%
remaining at 1 h, 1 μM (in vitro [4]): 86%
Minimum Inhibitory Concentration Plague CO92 (Plague CO92; listed as 53): 31.25 µg/mL
Minimum Inhibitory Concentration F. tularensis SCHU-S4 (F. tularensis SCHU-S4): >500 µg/mL
remaining at 0.25 h, 1 μM (in vitro [5]): 113%
remaining at 0.5 h, 1 μM (in vitro [5]): 72%
remaining at 1 h, 1 μM (in vitro [5]): 104%
remaining at 0.25 h, 1 μM (in vitro [6]): 88%
remaining at 0.5 h, 1 μM (in vitro [6]): 71%
remaining at 1 h, 1 μM (in vitro [6]): 66%
remaining at 0.25 h, 1 μM (in vitro [7]): 117%
remaining at 0.5 h, 1 μM (in vitro [7]): 120%
Minimum Inhibitory Concentration B. melitensis 16M (B. melitensis 16M): >500 µg/mL

Source: patent US20120197004A1, “NOVEL ANTI-MICROBIAL PEPTIDOMIMETIC COMPOUNDS AND METHODS TO CALCULATE ANTI-MICROBIAL ACTIVITY” (priority 2006, published 2012)
